Laboratory results reported in publication PMC11932207, “Regulating AMPA Receptors with Isoxazole-4-Carboxamide Derivatives: An Electrophysiological Study” (Journal of Xenobiotics, 2025).
Read-outs that look alike come from different tables or passages of the source.

Tests used:
GluA2 = target: T1, GluA2 (Rattus norvegicus, UniProt P19491); assay: Whole-cell patch clamp recordings of homomeric GluA2 AMPA receptor currents and kinetics in transfected HEK293t cells; format: cell-based; details: for Amplitude (peak whole-cell current in presence of compound): 16 µM compound co-applied with agonist, HEK293t, −60 mV, pH 7.4, 22 °C; for Amplitude (peak whole-cell current in presence of compound) / A/AI (amplitude ratio, glutamate alone / with compound) / t deact (weighted deactivation time constant) / t des (weighted desensitization time constant) / Amplitude, applying glutamate alone after compound: mean ± SD; for Amplitude (peak whole-cell current in presence of compound) / A/AI (amplitude ratio, glutamate alone / with compound) / Amplitude, applying glutamate alone after compound: n = 10; for A/AI (amplitude ratio, glutamate alone / with compound): 16 µM compound; for t deact (weighted deactivation time constant): 10 mM glutamate for 1 ms; for t deact (weighted deactivation time constant) / t des (weighted desensitization time constant): with compound; for t des (weighted desensitization time constant): 10 mM glutamate for 500 ms; for Amplitude, applying glutamate alone after compound: glutamate alone after the compound; for Effect on deactivation kinetics (τdeac), in words / Effect on desensitization kinetics (τdes), in words: versus glutamate alone, one-way ANOVA
T1 construct: expressed in transfected cells; host or cells: HEK293T (HEK293) cells, transient co-transfection with a separate EGFP vector
Description: (§1) The AMPA receptor subunits utilized in this study were of the flip isoform. The flip variant of the GluA2 subunit was originally provided by S. F. Heinemann (Salk Institute, La Jolla, CA, USA) in a pBlueScript plasmid. This plasmid was subsequently sub-cloned into a pRK vector to enable expression in HEK293 cells, which were sourced from Sigma, Germany. Additionally, the unedited version of GluA2 (R607Qjj, flip isoform) and enhanced green fluorescent protein (EGFP), both contained in pRK5 vectors, were generously supplied by P. H. Seeburg (Max Planck Institute for Medical Research, Heidelberg, Germany). Chemical-mediated ways induced transfection. GluA2 homomers were expressed into HEK293 cells by the co-transfection of 1 μg GluA2 plasmid with an equal amount of GFP expression vectors (1:1 ratio) into the cells. In addition, co-transfection was conducted for heteromeric GluA2/3 subunits at a ratio of 1:1.2 for optimum expression. For post-transfection experiments, cells were plated in 10% fetal calf serum and antibiotics in DMEM in Petri plates. These cultures were maintained under carefully controlled conditions—37 °C and 5% CO2 within a humidified incubator. The selection of cells for recordings was based on fluorescence intensity. Highly GFP-positive cells were identified and isolated for further analysis, ensuring precise targeting of transfected populations.
(§2) Whole-cell patch clamp recordings were performed on HEK293t cells 36–48 h after transfection. Experiments were conducted at 22 °C, maintaining a holding potential of −60 mV, using an Integrated Patch Amplifier (IPA) from Sutter Instruments (Novato, CA, USA). Data acquisition was managed with SutterPatch Software v. 1.1.1 (Sutter Instruments), employing a sampling rate of 10 kHz and setting the low-pass filter at 2 kHz. […] The external solution contained 150 mM NaCl, 2.8 mM KCl, 0.5 mM MgCl2, 2 mM CaCl2, and 10 mM HEPES, adjusted to a pH of 7.4 using NaOH. The internal pipette solution was composed of 110 mM CsF, 30 mM CsCl, 4 mM NaCl, 0.5 mM CaCl2, 10 mM trypsin-EDTA solution B (0.25%), 0.05% EDTA, and 10 mM HEPES, with the pH adjusted to 7.2 using CsOH.
(§3) A dual-barrel glass pipette (theta tube) was employed for the rapid delivery of glutamate and other solutions. The theta tube was attached to a high-speed piezoelectric solution exchange system (Automate Scientific, Berkeley, CA, USA). To assess the efficiency of solution exchange, open-tip potentials were measured by applying solutions with different ionic compositions after the patch was expelled from the pipette. The time required for a 10–90% change in the solution was generally less than […].
(§4) Data analysis was performed with Igor Pro8.04 software (Wave Metrics, Inc., Portland, OR, USA). AMPA receptor deactivation and desensitization kinetics were measured by applying 10 mM glutamate for 1 ms and 500 ms, respectively. The currents from the AMPA receptor were fitted to a double-exponential model to quantify deactivation and desensitization time constants measured from the double-exponential fits. The weighted tau (τw) is calculated as: τw = (τf × af) + (τs × as), where τf and τs are the time constants of fast and slow exponential components and af and as represent their relative amplitudes.
(§5) Data are presented as the mean ± standard deviation (SD). The total number of HEK293 cells engaged was n = 10. The experimental groups were compared to the wild type using a one-way analysis of variance (ANOVA). Statistical significance was assessed using p values: p < 0.05 (*) indicated significance, p < 0.01 (**) indicated high significance, and p < 0.001 (***) indicated very high significance. The value “ns” indicates non-significance. Concentration–response relationships were modeled using the Hill equation with the resulting combined plots via GraphPad Prism software (version 6.01, GraphPad Software). The data presented are the means from 3–4 experimental replicates. […]

GluA2/3 = target: T2, GluA2/3 (UniProt P19491+P42263); assay: Whole-cell patch clamp recordings of heteromeric GluA2/3 AMPA receptor currents and kinetics in transfected HEK293t cells; format: cell-based; details: for Amplitude (peak whole-cell current in presence of compound): 16 µM compound co-applied with agonist, HEK293t, −60 mV, pH 7.4, 22 °C; for Amplitude (peak whole-cell current in presence of compound) / A/AI (amplitude ratio, glutamate alone / with compound) / t deact (weighted deactivation time constant) / t des (weighted desensitization time constant) / Amplitude, applying glutamate alone after compound: mean ± SD; for Amplitude (peak whole-cell current in presence of compound) / A/AI (amplitude ratio, glutamate alone / with compound) / Amplitude, applying glutamate alone after compound: n = 10; for A/AI (amplitude ratio, glutamate alone / with compound): 16 µM compound; for t deact (weighted deactivation time constant): 10 mM glutamate for 1 ms; for t deact (weighted deactivation time constant) / t des (weighted desensitization time constant): with compound; for t des (weighted desensitization time constant): 10 mM glutamate for 500 ms; for Amplitude, applying glutamate alone after compound: glutamate alone after the compound; for Effect on deactivation kinetics (τdeac), in words / Effect on desensitization kinetics (τdes), in words: versus glutamate alone, one-way ANOVA
T2 construct: expressed in transfected cells; host or cells: HEK293T (HEK293) cells, transient co-transfection
Description: as §1, §2, §3, §4, §5

[1] = concentration–response fit, read-out: Log IC50 (converted)
[2] = inhibition of whole-cell peak current, concentration–response, Hill fit, read-out: IC50

T1 sequence (P19491 22-883 isoform P19491-2 limits assumed): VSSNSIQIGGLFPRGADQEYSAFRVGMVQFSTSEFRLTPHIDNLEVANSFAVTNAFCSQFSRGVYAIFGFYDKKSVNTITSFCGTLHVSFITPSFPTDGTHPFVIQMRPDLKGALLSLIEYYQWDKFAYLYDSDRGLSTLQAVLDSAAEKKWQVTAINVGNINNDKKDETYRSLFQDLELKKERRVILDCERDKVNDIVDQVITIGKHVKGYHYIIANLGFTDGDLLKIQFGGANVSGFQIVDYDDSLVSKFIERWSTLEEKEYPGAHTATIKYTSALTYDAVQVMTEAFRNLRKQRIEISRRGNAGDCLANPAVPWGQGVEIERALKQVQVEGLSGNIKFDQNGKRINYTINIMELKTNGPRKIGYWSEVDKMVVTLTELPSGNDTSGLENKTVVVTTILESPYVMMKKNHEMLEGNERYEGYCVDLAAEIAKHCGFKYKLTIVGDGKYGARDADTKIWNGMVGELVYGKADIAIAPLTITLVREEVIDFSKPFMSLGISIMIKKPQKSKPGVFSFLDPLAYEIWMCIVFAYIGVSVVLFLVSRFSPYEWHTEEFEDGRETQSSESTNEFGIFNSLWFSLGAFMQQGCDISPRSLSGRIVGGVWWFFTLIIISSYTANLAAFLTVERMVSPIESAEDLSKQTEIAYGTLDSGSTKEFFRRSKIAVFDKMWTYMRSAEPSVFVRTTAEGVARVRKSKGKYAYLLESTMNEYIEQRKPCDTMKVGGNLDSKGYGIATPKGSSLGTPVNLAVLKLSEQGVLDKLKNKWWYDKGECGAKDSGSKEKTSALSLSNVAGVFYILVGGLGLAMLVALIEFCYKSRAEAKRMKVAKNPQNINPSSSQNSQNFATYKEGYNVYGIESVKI
T2 sequence (P19491 22-883 isoform P19491-2 limits assumed): as above
T2 sequence (P42263 29-894 isoform P42263-2 limits assumed): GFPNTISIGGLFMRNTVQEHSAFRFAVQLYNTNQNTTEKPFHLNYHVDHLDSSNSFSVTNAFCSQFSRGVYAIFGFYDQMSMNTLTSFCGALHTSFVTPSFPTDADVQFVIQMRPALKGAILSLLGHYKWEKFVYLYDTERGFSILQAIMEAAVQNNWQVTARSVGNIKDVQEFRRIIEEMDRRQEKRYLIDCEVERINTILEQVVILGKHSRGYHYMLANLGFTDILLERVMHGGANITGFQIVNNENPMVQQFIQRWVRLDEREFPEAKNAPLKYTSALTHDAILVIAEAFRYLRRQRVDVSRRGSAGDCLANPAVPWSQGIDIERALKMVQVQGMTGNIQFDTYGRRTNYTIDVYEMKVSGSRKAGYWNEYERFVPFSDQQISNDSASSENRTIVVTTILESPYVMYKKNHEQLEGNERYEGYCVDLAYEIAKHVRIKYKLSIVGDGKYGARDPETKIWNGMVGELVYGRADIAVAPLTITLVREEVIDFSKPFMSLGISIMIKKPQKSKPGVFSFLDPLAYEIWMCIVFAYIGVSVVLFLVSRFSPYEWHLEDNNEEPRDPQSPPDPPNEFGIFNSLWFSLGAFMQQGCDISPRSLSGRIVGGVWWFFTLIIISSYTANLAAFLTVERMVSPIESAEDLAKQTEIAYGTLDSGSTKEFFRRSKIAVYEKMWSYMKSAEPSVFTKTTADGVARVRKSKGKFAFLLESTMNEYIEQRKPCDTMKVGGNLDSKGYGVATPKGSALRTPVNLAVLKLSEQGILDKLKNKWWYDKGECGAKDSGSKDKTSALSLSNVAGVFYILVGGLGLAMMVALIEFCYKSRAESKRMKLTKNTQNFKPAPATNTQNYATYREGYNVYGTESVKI

## Cc1onc(-c2c(Cl)cccc2Cl)c1C(=O)Nc1ccccc1 [CIC-8, 3-(2,6-dichlorophenyl)-5-methyl-N-phenylisoxazole-4-carboxamide]
GluA2
  Amplitude (peak whole-cell current in presence of compound): 291±22 pA
  A/AI (amplitude ratio, glutamate alone / with compound): 4.36±0.19
  t deact (weighted deactivation time constant): 4.8 ± 0.2 ms
  t des (weighted desensitization time constant): 1.9 ± 0.1 ms
  Amplitude, applying glutamate alone after compound: 1235±151 pA
  Effect on deactivation kinetics (τdeac), in words: statistically significant prolongation of τdeac
  Effect on desensitization kinetics (τdes), in words: accelerated desensitization, although to a lesser degree
GluA2; [1]
  IC50: 6.17 µM
GluA2; [2]
  IC50: 6.21 µM
GluA2/3
  Amplitude (peak whole-cell current in presence of compound): 123±20 pA
  A/AI (amplitude ratio, glutamate alone / with compound): 4.30±0.20
  t deact (weighted deactivation time constant): 4.9 ± 0.3 ms
  t des (weighted desensitization time constant): 1.9 ± 0.1 ms
  Amplitude, applying glutamate alone after compound: 513±99 pA
  Effect on deactivation kinetics (τdeac), in words: statistically significant prolongation of τdeac
  Effect on desensitization kinetics (τdes), in words: accelerated desensitization, although to a lesser degree
GluA2/3; [1]
  IC50: 6.31 µM
GluA2/3; [2]
  IC50: 6.3 µM

## Cc1onc(-c2c(Cl)cccc2Cl)c1C(=O)Nc1ccc(-c2ccccc2)cc1 [CIC-9, N-([1,1′-biphenyl]-4-yl)-3-(2,6-dichlorophenyl)-5-methylisoxazole-4-carboxamide]
GluA2
  A/AI (amplitude ratio, glutamate alone / with compound): 4.10±0.18
  t deact (weighted deactivation time constant): 4.6 ± 0.2 ms
  t des (weighted desensitization time constant): 2.0 ± 0.1 ms
  Amplitude, applying glutamate alone after compound: 1226±158 pA
  Effect on deactivation kinetics (τdeac), in words: statistically significant prolongation of τdeac
  Effect on desensitization kinetics (τdes), in words: accelerated desensitization, although to a lesser degree
GluA2; [1]
  IC50: 6.31 µM
GluA2; [2]
  IC50: 6.3 µM
GluA2/3
  Amplitude (peak whole-cell current in presence of compound): 124±19 pA
  A/AI (amplitude ratio, glutamate alone / with compound): 4.01±0.19
  t deact (weighted deactivation time constant): 4.5 ± 0.3 ms
  t des (weighted desensitization time constant): 2.0 ± 0.1 ms
  Amplitude, applying glutamate alone after compound: 484±89 pA
  Effect on deactivation kinetics (τdeac), in words: statistically significant prolongation of τdeac
  Effect on desensitization kinetics (τdes), in words: accelerated desensitization, although to a lesser degree
GluA2/3; [1]
  IC50: 6.46 µM
GluA2/3; [2]
  IC50: 6.42 µM

## Cc1onc(-c2c(Cl)cccc2Cl)c1C(=O)Nc1ccc(OC(F)(F)F)cc1 [CIC-10, 3-(2,6-dichlorophenyl)-5-methyl-N-(4-(trifluoromethoxy)phenyl)isoxazole-4-carboxamide]
GluA2
  Amplitude (peak whole-cell current in presence of compound): 328±35 pA
  A/AI (amplitude ratio, glutamate alone / with compound): 3.90±0.16
  t deact (weighted deactivation time constant): 4.4 ± 0.2 ms
  t des (weighted desensitization time constant): 2.3 ± 0.1 ms
  Amplitude, applying glutamate alone after compound: 1249±188 pA
  Effect on deactivation kinetics (τdeac), in words: statistically significant prolongation of τdeac
  Effect on desensitization kinetics (τdes), in words: did not significantly alter desensitization kinetics
GluA2; [1]
  IC50: 6.46 µM
GluA2; [2]
  IC50: 6.51 µM
GluA2/3
  Amplitude (peak whole-cell current in presence of compound): 128±29 pA
  A/AI (amplitude ratio, glutamate alone / with compound): 3.86±0.18
  t deact (weighted deactivation time constant): 4.3 ± 0.2 ms
  t des (weighted desensitization time constant): 2.5 ± 0.1 ms
  Amplitude, applying glutamate alone after compound: 482±128 pA
  Effect on deactivation kinetics (τdeac), in words: statistically significant prolongation of τdeac
  Effect on desensitization kinetics (τdes), in words: did not significantly alter desensitization kinetics
GluA2/3; [1]
  IC50: 6.61 µM
GluA2/3; [2]
  IC50: 6.62 µM

## Cc1onc(-c2c(F)cccc2Cl)c1C(=O)Nc1ccc(OC(F)(F)F)cc1 [CIC-11, 3-(2-chloro-6-fluorophenyl)-5-methyl-N-(4-(trifluoromethoxy)phenyl)isoxazole-4-carboxamide]
GluA2
  Amplitude (peak whole-cell current in presence of compound): 359±28 pA
  A/AI (amplitude ratio, glutamate alone / with compound): 3.53±0.15
  t deact (weighted deactivation time constant): 3.0 ± 0.2 ms
  Amplitude, applying glutamate alone after compound: 1233±147 pA
  Effect on deactivation kinetics (τdeac), in words: did not elicit statistically significant changes
  Effect on desensitization kinetics (τdes), in words: did not significantly alter desensitization kinetics
GluA2; [1]
  IC50: 7.08 µM
GluA2; [2]
  IC50: 7.02 µM
GluA2/3
  Amplitude (peak whole-cell current in presence of compound): 141±29 pA
  A/AI (amplitude ratio, glutamate alone / with compound): 3.46±0.16
  t deact (weighted deactivation time constant): 2.9 ± 0.2 ms
  t des (weighted desensitization time constant): 2.3 ± 0.1 ms
  Amplitude, applying glutamate alone after compound: 476±112 pA
  Effect on deactivation kinetics (τdeac), in words: did not elicit statistically significant changes
  Effect on desensitization kinetics (τdes), in words: did not significantly alter desensitization kinetics
GluA2/3; [1]
  IC50: 7.08 µM
GluA2/3; [2]
  IC50: 7.13 µM

## Cc1onc(-c2c(Cl)cccc2Cl)c1C(=O)Nc1ccc(C(C)(C)C)cc1 [CIC-12, N-(4-(tert-butyl)phenyl)-3-(2,6-dichlorophenyl)-5-methylisoxazole-4-carboxamide]
GluA2
  Amplitude (peak whole-cell current in presence of compound): 417±47 pA
  A/AI (amplitude ratio, glutamate alone / with compound): 3.04±0.13
  t deact (weighted deactivation time constant): 2.7 ± 0.2 ms
  t des (weighted desensitization time constant): 2.4 ± 0.1 ms
  Amplitude, applying glutamate alone after compound: 1237±195 pA
  Effect on deactivation kinetics (τdeac), in words: did not elicit statistically significant changes
  Effect on desensitization kinetics (τdes), in words: did not significantly alter desensitization kinetics
GluA2; [1]
  IC50: 7.59 µM
GluA2; [2]
  IC50: 7.54 µM
GluA2/3
  Amplitude (peak whole-cell current in presence of compound): 162±36 pA
  A/AI (amplitude ratio, glutamate alone / with compound): 3.01±0.14
  t deact (weighted deactivation time constant): 2.8 ± 0.2 ms
  t des (weighted desensitization time constant): 2.3 ± 0.1 ms
  Amplitude, applying glutamate alone after compound: 478±127 pA
  Effect on deactivation kinetics (τdeac), in words: did not elicit statistically significant changes
  Effect on desensitization kinetics (τdes), in words: did not significantly alter desensitization kinetics
GluA2/3; [1]
  IC50: 7.59 µM
GluA2/3; [2]
  IC50: 7.5 µM
